The values that follow come from patent US7459455B2, “Pyrimidine compounds” (SmithKline Beecham Corporation, priority 2002, dated 2008).

Assay [1] addresses T1, Recombinant GST-Tie2 (Homo sapiens, UniProt Q02763).
T1 construct: GST
Kind of assay: Tie2 Fluorescence Polarization Kinase Activity Assay (TIE2-FP). It counts as biochemical. Particulars: activated Tie2, 200 μM ATP. On the procedure: Tie2 Fluorescence Polarization Kinase Activity Assay: (TIE2-FP)
Activation of Recombinant Tie2 Activation:
Recombinant GST-Tie2 was activated by incubating the enzyme in 20 mM Tris-HCl, pH 7.5, 12 mM MgCl2, 100 mM NaCl, 20 μM sodium vanidate, 1 mM DT and 300 μM ATP at room temperature for 2 hours. The activation mixture was then passed through a NAP-25 desalting column (Pharmacia Biotech cat. no. 17-0852-O2) to remove the free ATP. The activated enzyme was stored as aliquots at −80° C. in 20 mM Tris-HCl, pH 7.5 and 100 mM NaCl.
The final assay conditions were 50 mM HEPES, pH 7.5, 5% DMSO (when screening compounds), 200 μM ATP, 5 mM MgCl2, 1 mM DTT, 50 μM sodium vanidate, 1 nM activated enzyme, and 200 μM peptide. IC50's of compounds were measured under subsaturating ATP (200 μM) and varing concentrations of activated Tie2 and peptide substrate (RFWKYEFWR-OH; MW 1873 Da, TFA salt). Panvera Anti-phosphotyrosine antibody (Cat#P2840) and PTK Green Tracer (Cat#P2842) were used to detect the phosphorylated peptide. Polarization was measured on a TECAN Polarion in 138-second cycles for 30 minutes at room temperature. IC50's were then determined from the % polarization using normal calculation methods.
(In general: Fluorescence polarisation rises when a labelled molecule tumbles more slowly, as on binding a larger partner.)

In assay [2] the test system is Human umbilical cord endothelial cells (HUVEC). Kind of assay: VEGF-Driven Cellular Proliferation Assay: BrdU Incorporation Assay (VEGF-C). The class given is cell-based. On the procedure:
VEGF-Driven Cellular Proliferation Assay: BrdU Incorporation Assay (VEGF-C)
Human umbilical cord endothelial cells (HUVEC, Clonetics, CC2519) were passaged in Type I collagen-coated 100-mm petridishes in EGM-MV medium (Clonetics, CC3125) at 37 C in a humidified 5% CO2, 95% air incubator. (HUVEC passaged more than 6 times in vitro were discarded and not subjected to assaying.) The cells were harvested using trypsin/EDTA, counted using a haemocytometer and plated at 5000 cells/well in a Type I-collagen coated 96-well plate (Becton Dickinson, 354407) in M199 medium (Gibco BRL, 12340-030) containing 5% FBS (Hyclone, A 1115-L) and gentamicin (at 50 ug/ml, Gibco BRL). After incubation overnight at 37° C., the media were replaced with 100 ul of M199 serum-free medium containing compounds at various concentrations with 0.6% DMSO and gentamicin. The compounds were diluted in serum-free M199 medium from 10 mM stock solutions prepared in 100% DMSO. After a 30 min incubation at 37° C. the cells were fed with 100 ul of serum-free M199 medium containing gentamicin, 0.2% culture-grade bovine serum albumin (BSA, Sigma A1993) and 20 ng/ml of VEGF (R&D systems, 293-VE) or 0.6 ng/ml of basic FGF (R&D systems, 233-FB), and cultured at 37° C. for another 24 h. The cells were pulsed with bromodeoxyuridine (BrdU at 10 μM in serum-free M199) at 37° C. for an additional 24 h. The incorporation of BrdU into the proliferating HUVEC were analyzed using BrdU Cell Proliferation ELISA (Roche Molecular Biochemicals, 1647229) according to the manufacturer's protocols. The optical density at 450 nm was measured with a multilabel counter (ARVO SX, Wallac). The percent inhibition of cell growth was calculated relative to blank control wells. The concentration of test compound that inhibits 50% of cell growth (IC50) was interpolated using nonlinear regression (Levernberg-Marquardt) and the equation, γ=Vmax (1−x/(K+x))+Y2, where “K” was equal to the IC50. The IC50 values were converted to pIC50 values, i.e., −log IC50 in Molar concentration.

The target in assay [3] is T2, GST-VEGFR2 (Homo sapiens, UniProt P35968).
T2 construct: GST-VEGFR2, baculovirus expressed recombinant constructs of the intracellular domains of human TIE2 tagged by GST; made in house
T2 sequence (P35968 786-1356 limits assumed): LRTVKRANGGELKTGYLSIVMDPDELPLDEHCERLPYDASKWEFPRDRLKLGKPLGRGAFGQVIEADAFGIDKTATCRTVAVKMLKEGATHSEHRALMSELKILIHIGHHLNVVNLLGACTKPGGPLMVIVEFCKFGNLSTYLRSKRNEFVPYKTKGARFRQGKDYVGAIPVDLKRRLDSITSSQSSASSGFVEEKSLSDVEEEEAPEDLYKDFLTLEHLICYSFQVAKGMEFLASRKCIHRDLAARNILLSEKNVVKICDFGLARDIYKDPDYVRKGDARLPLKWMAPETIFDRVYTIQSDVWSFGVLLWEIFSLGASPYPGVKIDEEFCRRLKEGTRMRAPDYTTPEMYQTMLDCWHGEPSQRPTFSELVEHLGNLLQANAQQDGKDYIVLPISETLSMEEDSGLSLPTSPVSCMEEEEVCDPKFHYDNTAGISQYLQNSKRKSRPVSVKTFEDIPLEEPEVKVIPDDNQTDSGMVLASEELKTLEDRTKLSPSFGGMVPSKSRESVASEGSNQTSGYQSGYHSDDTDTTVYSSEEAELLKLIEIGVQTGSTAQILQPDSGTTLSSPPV
Kind of assay: VEGF-R2 Enzyme Assay (VEGF-E), LANCE method. It counts as biochemical. As to conditions: GST-VEGFR2, 75 μM ATP, peptide phosphorylation. The source says:
VEGF-R2 Enzyme Assay VEGF-E)
The VEGF enzyme assay used the LANCE method (Wallac) and GST-VEGFR2, baculovirus expressed recombinant constructs of the intracellular domains of human TIE2 tagged by GST. The method measured the ability of the purified enzymes to catalyse the transfer of the γ-phosphate from ATP onto tyrosine residues in a biotinylated synthetic peptide, (biotin-aminohexyl-EEEEYFELVAKKKK-NH2). This peptide phosphorylation was detected using the following procedure: GST-VEGFR2 was incubated for 40-60 mins at room temperature with 75 μM ATP, 5 mM MgCl2, 0.1 mM DTT, 0.1 mg/mL BSA and the test compound (diluted from a 10 mM stock in DMSO for desired concentration) in 100 mM HEPES buffer. The reaction was stopped by the addition of EDTA (final concentration 50 mM). Streptavidin linked-APC (allophycocyanin, Molecular Probe) and Europium-labeled anti-phosphorylated tyrosile antibody (Wallac) were then added at the final concentration of 15 nM and 1 nM, respectively. The APC signal was measured using an ARVO multilabel counter (Wallac Berthold, Japan). The percent inhibition of activity was calculated relative to blank control wells. The concentration of test compound that inhibits 50% of activity (IC50) was interpolated using nonlinear regression (Levernberg-Marquardt) and the equation, γ=Vmax (1−x/(K+x))+Y2, where “K” was equal to the IC50. The IC50 values were converted to pIC50 values, i.e., −log IC50 in Molar concentration.
Background: Time-resolved FRET reads energy transfer from a long-lived donor to a nearby acceptor.

T1 sequence (Q02763 770-1124 limits assumed): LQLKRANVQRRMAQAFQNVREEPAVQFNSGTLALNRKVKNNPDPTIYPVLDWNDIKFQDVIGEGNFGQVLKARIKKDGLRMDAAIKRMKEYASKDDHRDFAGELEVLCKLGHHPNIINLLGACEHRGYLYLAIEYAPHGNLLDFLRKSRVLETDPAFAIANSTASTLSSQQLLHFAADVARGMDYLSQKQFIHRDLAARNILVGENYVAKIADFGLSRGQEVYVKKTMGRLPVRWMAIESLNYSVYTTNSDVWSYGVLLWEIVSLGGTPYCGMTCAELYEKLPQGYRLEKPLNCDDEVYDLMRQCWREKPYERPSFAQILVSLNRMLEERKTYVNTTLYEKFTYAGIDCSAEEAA

Regarding `CN(c1cccc(NC(=O)Nc2cccc(F)c2)c1)c1ccnc(Nc2cccc(S(N)(=O)=O)c2)n1` [Example 16, 3-({4-[[3-({[(3-Fluorophenyl)amino]carbonyl}amino)phenyl](methyl)amino]pyrimidin-2-yl}amino)benzenesulfonamide], the IC50 is 0.1 to 1 µM in assay [1], less than 0.1 µM in assay [2] and less than 0.1 µM in assay [3].
On to `CCS(=O)(=O)c1ccc(OC)c(Nc2nccc(N(C)c3ccc(NC(=O)Nc4cc(C(F)(F)F)ccc4F)cc3)n2)c1` [Example 17, N-{4-[(2-{[5-(Ethylsulfonyl)-2-methoxyphenyl]amino}pyrimidin-4-yl)(methyl)amino]phenyl}-N′-[2-fluoro-5-(trifluoromethyl)phenyl]urea], for which the concentration for half-maximal inhibition (IC50) in assay [1], in assay [2] and in assay [3] was less than 0.1 µM each time.
As to `CCS(=O)(=O)c1ccc(OC)c(Nc2nccc(N(C)c3ccc(NC(=O)Nc4cccc(F)c4)cc3)n2)c1` [Example 18, N-{4-[(2-{[5-(Ethylsulfonyl)-2-methoxyphenyl]amino}pyrimidin-4-yl)(methyl)amino]phenyl}-N′-(3-fluorophenyl)urea], the 50% inhibitory concentration (IC50) in assay [1], in assay [2] and in assay [3] was less than 0.1 µM in each case.
In the case of `CCc1cccc(NC(=O)Nc2ccc(N(C)c3ccnc(Nc4ccc(S(N)(=O)=O)cc4)n3)cc2)c1` [Example 20, 4-({4-[[4-({[(3-ethylphenyl)amino]carbonyl}amino)phenyl](methyl)amino]pyrimidin-2-yl}amino)benzenesulfonamide], the IC50 in assay [1], in assay [2] and in assay [3] was less than 0.1 µM each time.
On to `CN(c1ccc(NC(=O)Nc2ccc(OC(F)(F)F)cc2)cc1)c1ccnc(Nc2ccc(S(N)(=O)=O)cc2)n1` [Example 21, 4-{[4-(methyl{4-[({[4-(trifluoromethoxy)phenyl]amino}carbonyl)amino]phenyl}amino)pyrimidin-2-yl]amino}benzenesulfonamide], for which the half-maximal inhibitory concentration (IC50) in assay [1], in assay [2] and in assay [3] was less than 0.1 µM throughout.

The term IC50 denotes the midpoint of a concentration-inhibition curve.
